Data as given in ChEMBL document CHEMBL3734723, “Synthesis and anticancer activity of 6-heteroarylcoumarins” (2015).

Legend:
Assay type in all cases: functional
[1] = Cytotoxicity against human HOP92 cells assessed as cell growth at 10 uM incubated for 48 hrs by sulforhodamine B assay; settings: HOP-92, 48 h, read-out: Activity
[2] = Growth inhibition of human prostate cancer cells after 48 hrs by sulforhodamine B assay; settings: Cancer cell lines; for CC50: read-out: LC50 (the source's name)
[3] = Cytotoxicity against human SNB19 cells assessed as cell growth at 10 uM incubated for 48 hrs by sulforhodamine B assay; settings: SNB-19, 48 h, read-out: Activity
[4] = test system: MCF7; assay: Growth inhibition of human MCF7 cells incubated for 48 hrs by sulforhodamine B assay; settings: MCF7, 48 h; for CC50: read-out: LC50 (the source's name)
[5] = Cytotoxicity against human […] cells assessed as cell growth at 10 uM incubated for 48 hrs by sulforhodamine B assay; settings: read-out: Activity
[6] = Cytotoxicity against human UO31 cells assessed as cell growth at 10 uM incubated for 48 hrs by sulforhodamine B assay; settings: UO-31, 48 h, read-out: Activity
[7] = test system: NCI-H23; assay: Growth inhibition of human NCI-H23 cells incubated for 48 hrs by sulforhodamine B assay; settings: NCI-H23, 48 h; for CC50: read-out: LC50 (the source's name)
[8] = test system: NCI-H522; assay: Growth inhibition of human NCI-H522 cells incubated for 48 hrs by sulforhodamine B assay; settings: NCI-H522, 48 h; for CC50: read-out: LC50 (the source's name)
[9] = Cytotoxicity against human UACC62 cells assessed as cell growth at 10 uM incubated for 48 hrs by sulforhodamine B assay; settings: UACC-62, 48 h, read-out: Activity
[10] = Growth inhibition of human COLO205 cells incubated for 48 hrs by sulforhodamine B assay; settings: COLO 205, 48 h; for CC50: read-out: LC50 (the source's name)
[11] = Cytotoxicity against human SW620 cells assessed as cell growth at 10 uM incubated for 48 hrs by sulforhodamine B assay; settings: SW-620, 48 h, read-out: Activity
[12] = Growth inhibition of human NCI-ADR-RES cells incubated for 48 hrs by sulforhodamine B assay; settings: for CC50: read-out: LC50 (the source's name)
[13] = Cytotoxicity against human SF295 cells assessed as cell growth at 10 uM incubated for 48 hrs by sulforhodamine B assay; settings: SF-295, 48 h, read-out: Activity
[14] = test system: T47D; assay: Cytotoxicity against human T47D cells assessed as cell growth at 10 uM incubated for 48 hrs by sulforhodamine B assay; settings: read-out: Activity
[15] = test system: MDA-MB-435; assay: Cytotoxicity against human MDA-MB-435 cells assessed as cell growth at 10 uM incubated for 48 hrs by sulforhodamine B assay; settings: MDA-MB-435, 48 h, read-out: Activity
[16] = test system: KM12; assay: Growth inhibition of human KM12 cells incubated for 48 hrs by sulforhodamine B assay; settings: KM12, 48 h; for CC50: read-out: LC50 (the source's name)
[17] = Growth inhibition of human SF539 cells incubated for 48 hrs by sulforhodamine B assay; settings: SF-539, 48 h; for CC50: read-out: LC50 (the source's name)
[18] = test system: SK-MEL-5; assay: Growth inhibition of human SK-MEL-5 cells incubated for 48 hrs by sulforhodamine B assay; settings: SK-MEL-5, 48 h; for CC50: read-out: LC50 (the source's name)
[19] = Growth inhibition of human UO31 cells incubated for 48 hrs by sulforhodamine B assay; settings: UO-31, 48 h; for CC50: read-out: LC50 (the source's name)
[20] = Cytotoxicity against human RPMI8226 cells assessed as cell growth at 10 uM incubated for 48 hrs by sulforhodamine B assay; settings: RPMI-8226, 48 h, read-out: Activity
[21] = test system: SN12C; assay: Growth inhibition of human SN12C cells incubated for 48 hrs by sulforhodamine B assay; settings: for CC50: read-out: LC50 (the source's name)
[22] = test system: HT-29; assay: Growth inhibition of human HT-29 cells incubated for 48 hrs by sulforhodamine B assay; settings: HT-29, 48 h; for CC50: read-out: LC50 (the source's name)
[23] = Cytotoxicity against human MOLT4 cells assessed as cell growth at 10 uM incubated for 48 hrs by sulforhodamine B assay; settings: MOLT-4, 48 h, read-out: Activity
[24] = Cytotoxicity against human PC3 cells assessed as cell growth at 10 uM incubated for 48 hrs by sulforhodamine B assay; settings: PC-3, 48 h, read-out: Activity
[25] = Growth inhibition of human OVCAR3 cells incubated for 48 hrs by sulforhodamine B assay; settings: OVCAR-3, 48 h; for CC50: read-out: LC50 (the source's name)
[26] = test system: A549; assay: Growth inhibition of human A549 cells incubated for 48 hrs by sulforhodamine B assay; settings: A549, 48 h; for CC50: read-out: LC50 (the source's name)
[27] = Growth inhibition of human SW620 cells incubated for 48 hrs by sulforhodamine B assay; settings: SW-620, 48 h; for CC50: read-out: LC50 (the source's name)
[28] = Growth inhibition of human SKOV3 cells incubated for 48 hrs by sulforhodamine B assay; settings: SK-OV-3, 48 h; for CC50: read-out: LC50 (the source's name)
[29] = Growth inhibition of human leukemia cells after 48 hrs by sulforhodamine B assay; settings: Leukemia cell; for CC50: read-out: LC50 (the source's name)
[30] = Growth inhibition of human HOP92 cells incubated for 48 hrs by sulforhodamine B assay; settings: HOP-92, 48 h; for CC50: read-out: LC50 (the source's name)
[31] = Growth inhibition of human DU145 cells incubated for 48 hrs by sulforhodamine B assay; settings: DU-145, 48 h; for CC50: read-out: LC50 (the source's name)
[32] = test system: K562; assay: Cytotoxicity against human K562 cells assessed as cell growth at 10 uM incubated for 48 hrs by sulforhodamine B assay; settings: K562, 48 h, read-out: Activity
[33] = Cytotoxicity against human SF268 cells assessed as cell growth at 10 uM incubated for 48 hrs by sulforhodamine B assay; settings: SF-268, 48 h, read-out: Activity
[34] = Growth inhibition of human UACC257 cells incubated for 48 hrs by sulforhodamine B assay; settings: UACC-257, 48 h; for CC50: read-out: LC50 (the source's name)
[35] = test system: EKVX; assay: Cytotoxicity against human EKVX cells assessed as cell growth at 10 uM incubated for 48 hrs by sulforhodamine B assay; settings: read-out: Activity
[36] = Cytotoxicity against human NCI-ADR-RES cells assessed as cell growth at 10 uM incubated for 48 hrs by sulforhodamine B assay; settings: read-out: Activity

With Cc1cc(=O)oc2c(C)c(O)c(-c3ccnc(N)n3)cc12 the growth at 10 µM [1] was 47.4%, the GI50 [2] was greater than 100 µM and the TGI [2] was greater than 100 µM. The CC50 [2] was greater than 100 µM, the growth at 10 µM [3] was 64.1% and the GI50 [4] was 2.61 µM. The TGI [4] was greater than 100 µM, the CC50 [4] was greater than 100 µM and the growth at 10 µM [5] was 40.4%. The growth at 10 µM [6] was 23%, the GI50 [7] was 46 µM and the TGI [7] was greater than 100 µM. It also gave a CC50 [7] greater than 100 µM, a GI50 [8] of 20.7 µM and a TGI [8] greater than 100 µM. The CC50 [8] was greater than 100 µM, the growth at 10 µM [9] was 51.5% and the GI50 [10] was 6.85 µM. For the same compound, the TGI [10] was greater than 100 µM, the CC50 [10] was greater than 100 µM and the growth at 10 µM [11] was 38.4%. For the same compound, the GI50 [12] was 66.1 µM, the TGI [12] was greater than 100 µM and the CC50 [12] was greater than 100 µM. It also gave a growth at 10 µM [13] of 28.7%, a growth at 10 µM [14] of 53.7% and a growth at 10 µM [15] of 55%. For the same compound, the GI50 [16] was greater than 100 µM, the TGI [16] was greater than 100 µM and the CC50 [16] was greater than 100 µM. The GI50 [17] was 8.33 µM, the TGI [17] was greater than 100 µM and the CC50 [17] was greater than 100 µM. For the same compound, the GI50 [18] was 3.56 µM, the TGI [18] was greater than 100 µM and the CC50 [18] was greater than 100 µM. It also gave a GI50 [19] of 2.59 µM, a TGI [19] greater than 100 µM and a CC50 [19] greater than 100 µM. For the same compound, the growth at 10 µM [20] was 30.5%, the GI50 [21] was 29.2 µM and the TGI [21] was greater than 100 µM. The CC50 [21] was greater than 100 µM, the GI50 [22] was 6.72 µM and the TGI [22] was greater than 100 µM. The CC50 [22] was greater than 100 µM, the growth at 10 µM [23] was -44.7% and the growth at 10 µM [24] was 60.3%. The GI50 [25] was 37.7 µM, the TGI [25] was greater than 100 µM and the CC50 [25] was greater than 100 µM. The GI50 [26] was 3.03 µM, the TGI [26] was greater than 100 µM and the CC50 [26] was greater than 100 µM. It also gave a GI50 [27] of 3.6 µM, a TGI [27] greater than 100 µM and a CC50 [27] greater than 100 µM. The GI50 [28] was 28.3 µM, the TGI [28] was greater than 100 µM and the CC50 [28] was greater than 100 µM. It also gave a GI50 [29] of 31.9 µM, a TGI [29] greater than 100 µM and a CC50 [29] greater than 100 µM. For the same compound, the GI50 [30] was 19.4 µM, the TGI [30] was 93.9 µM and the CC50 [30] was greater than 100 µM. The GI50 [31] was greater than 100 µM, the TGI [31] was greater than 100 µM and the CC50 [31] was greater than 100 µM. The growth at 10 µM [32] was 46.5%, the growth at 10 µM [33] was 62.6% and the GI50 [34] was greater than 100 µM. It also gave a TGI [34] greater than 100 µM, a CC50 [34] greater than 100 µM and a growth at 10 µM [35] of 46.7%. For the same compound, the growth at 10 µM [36] was 57.1%.

Work on Cc1cc(=O)oc2c(C)c(O)c(-c3cc4ccc(F)cc4[nH]3)cc12 yielded a growth at 10 µM [1] of -9.31%, a GI50 [2] of 3.09 µM and a TGI [2] of 14.2 µM. The CC50 [2] was greater than 100 µM, the growth at 10 µM [3] was 31.6% and the GI50 [4] was 2.57 µM. It also gave a TGI [4] of 16.2 µM, a CC50 [4] greater than 100 µM and a growth at 10 µM [5] of 41.2%. The growth at 10 µM [6] was 21.6%, the GI50 [7] was 2.07 µM and the TGI [7] was 8.99 µM. For the same compound, the CC50 [7] was 75.3 µM, the GI50 [8] was 2.78 µM and the TGI [8] was 9.09 µM. The CC50 [8] was 48.9 µM, the growth at 10 µM [9] was 26% and the GI50 [10] was 11.7 µM. The TGI [10] was 25.6 µM, the CC50 [10] was 56 µM and the growth at 10 µM [11] was 58.6%. It also gave a GI50 [12] of 2.82 µM, a TGI [12] of 12.7 µM and a CC50 [12] greater than 100 µM. The growth at 10 µM [13] was 33%, the growth at 10 µM [14] was 27.2% and the growth at 10 µM [15] was 32.4%. The GI50 [16] was 3.03 µM, the TGI [16] was 12.4 µM and the CC50 [16] was 42 µM. For the same compound, the GI50 [17] was 2.94 µM, the TGI [17] was 14.1 µM and the CC50 [17] was 59.4 µM. The GI50 [18] was 1.65 µM, the TGI [18] was 4.46 µM and the CC50 [18] was 14.5 µM. For the same compound, the GI50 [19] was 1.71 µM, the TGI [19] was 6.21 µM and the CC50 [19] was 25.5 µM. The growth at 10 µM [20] was 8.76%, the GI50 [21] was 3.32 µM and the TGI [21] was 13 µM. For the same compound, the CC50 [21] was 48 µM, the GI50 [22] was 10.2 µM and the TGI [22] was 23 µM. The CC50 [22] was 52 µM, the growth at 10 µM [23] was 36.5% and the growth at 10 µM [24] was 27.5%. The GI50 [25] was 2.28 µM, the TGI [25] was 7.02 µM and the CC50 [25] was 37.5 µM. For the same compound, the GI50 [26] was 3.82 µM, the TGI [26] was 15 µM and the CC50 [26] was 58.4 µM. For the same compound, the GI50 [27] was 3.54 µM, the TGI [27] was 15.2 µM and the CC50 [27] was 52.2 µM. The GI50 [28] was 2.93 µM, the TGI [28] was 13.1 µM and the CC50 [28] was 64.9 µM. The GI50 [29] was 3.08 µM, the TGI [29] was 19.8 µM and the CC50 [29] was greater than 100 µM. The GI50 [30] was 0.95 µM, the TGI [30] was 4.17 µM and the CC50 [30] was 29.9 µM. The GI50 [31] was 3.53 µM, the TGI [31] was 18.4 µM and the CC50 [31] was greater than 100 µM. For the same compound, the growth at 10 µM [32] was 26.7%, the growth at 10 µM [33] was 48.7% and the GI50 [34] was 1.82 µM. For the same compound, the TGI [34] was 3.78 µM, the CC50 [34] was 7.87 µM and the growth at 10 µM [35] was 53.3%. The growth at 10 µM [36] was 20.7%.
